{
  "source": "PubChem BioAssay AID212",
  "about": "(DTP/NCI, 2004)",
  "system": "BDF1 mice, colon carcinoma 38 sc, T/C %",
  "assay": "NCI In Vivo Anticancer Drug Screen. Data for tumor model Colon Carcinoma 38 (subcutaneous) in B6D2F1 (BDF1) mice",
  "summary_of_the_method": "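Compound antitumor activity was assessed in mice carrying transplantable tumors. Survival or tumor size was recorded, and each value is the treated-group measurement divided by that of the vehicle-treated control group.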",
  "note": "Several values for one entry are separate records, joined by “and”; a condition that tells them apart may be missing. Equal values may be shown once. Records with an inconclusive call do not appear.",
  "data": [
    {"smiles": "COc1cccc2c1C(=O)c1c(O)c3c(c(O)c1C2=O)C[C@@](O)(C(=O)CO)C[C@@H]3OC1CC(N)C(O)C(C)O1", "note": "(stereo partly drawn)", "values": [
      {"measurement": "T/C", "setting": "endpoint: median survival time, dose: 2.7 mg/kg/injection, schedule: Q07DX003 (iv), vehicle: saline, higher = longer survival", "result": "104 % of control"},
      {"measurement": "T/C", "setting": "endpoint: median survival time, dose: 3.3 mg/kg/injection, schedule: Q07DX002 (iv), vehicle: saline, higher = longer survival", "result": "112 % of control and 108 % of control"},
      {"measurement": "T/C", "setting": "endpoint: median survival time, dose: 3.3 mg/kg/injection, schedule: Q07DX004 (iv), vehicle: saline, higher = longer survival", "result": "118 % of control"},
      {"measurement": "T/C", "setting": "endpoint: median survival time, dose: 4.1 mg/kg/injection, schedule: Q07DX003 (iv), vehicle: saline, higher = longer survival", "result": "100 % of control"},
      {"measurement": "T/C", "setting": "endpoint: median survival time, dose: 4.5 mg/kg/injection, schedule: Q07DX002 (sc), vehicle: saline, higher = longer survival", "result": "79 % of control"},
      {"measurement": "T/C", "setting": "endpoint: median survival time, dose: 5.2 mg/kg/injection, schedule: Q07DX002 (iv), vehicle: saline, higher = longer survival", "result": "174 % of control"},
      {"measurement": "T/C", "setting": "endpoint: median survival time, dose: 5.4 mg/kg/injection, schedule: Q07DX002 (iv), vehicle: saline, higher = longer survival", "result": "109 % of control and 124 % of control"},
      {"measurement": "T/C", "setting": "endpoint: median survival time, dose: 5.4 mg/kg/injection, schedule: Q07DX004 (iv), vehicle: saline, higher = longer survival", "result": "155 % of control"},
      {"measurement": "T/C", "setting": "endpoint: median survival time, dose: 6.0 mg/kg/injection, schedule: Q07DX003 (iv), vehicle: saline, higher = longer survival", "result": "157 % of control"},
      {"measurement": "T/C", "setting": "endpoint: median survival time, dose: 7.3 mg/kg/injection, schedule: Q07DX002 (sc), vehicle: saline, higher = longer survival", "result": "104 % of control"},
      {"measurement": "T/C", "setting": "endpoint: median survival time, dose: 8.5 mg/kg/injection, schedule: Q07DX002 (sc), vehicle: saline, higher = longer survival", "result": "166 % of control"},
      {"measurement": "T/C", "setting": "endpoint: median survival time, dose: 8.7 mg/kg/injection, schedule: Q07DX002 (iv), vehicle: saline, higher = longer survival", "result": "124 % of control"},
      {"measurement": "T/C", "setting": "endpoint: median survival time, dose: 8.7 mg/kg/injection, schedule: Q07DX004 (iv), vehicle: saline, higher = longer survival", "result": "184 % of control"},
      {"measurement": "T/C", "setting": "endpoint: median survival time, dose: 9.0 mg/kg/injection, schedule: Q07DX003 (iv), vehicle: saline, higher = longer survival", "result": "168 % of control"},
      {"measurement": "T/C", "setting": "endpoint: median survival time, dose: 9.0 mg/kg/injection, schedule: Q07DX003 (sc), vehicle: saline, higher = longer survival", "result": "164 % of control"},
      {"measurement": "T/C", "setting": "endpoint: median survival time, dose: 12.0 mg/kg/injection, schedule: Q07DX002 (sc), vehicle: saline, higher = longer survival", "result": "113 % of control"},
      {"measurement": "T/C", "setting": "endpoint: median survival time, dose: 13.5 mg/kg/injection, schedule: Q07DX003 (sc), vehicle: saline, higher = longer survival", "result": "166 % of control"},
      {"measurement": "T/C", "setting": "endpoint: median survival time, dose: 15.5 mg/kg/injection, schedule: Q07DX003 (iv), vehicle: saline, higher = longer survival", "result": "152 % of control"},
      {"measurement": "T/C", "setting": "endpoint: median tumor weight (est.), dose: 0.18 mg/kg/injection, schedule: Q07DX002 (ip), vehicle: water, higher = larger tumour", "result": "67 % of control"},
      {"measurement": "T/C", "setting": "endpoint: median tumor weight (est.), dose: 0.37 mg/kg/injection, schedule: Q07DX002 (ip), vehicle: water, higher = larger tumour", "result": "102 % of control"},
      {"measurement": "T/C", "setting": "endpoint: median tumor weight (est.), dose: 0.5 mg/kg/injection, schedule: Q07DX002 (ip), vehicle: water, higher = larger tumour", "result": "108 % of control"},
      {"measurement": "T/C", "setting": "endpoint: median tumor weight (est.), dose: 0.5 mg/kg/injection, schedule: Q07DX003 (ip), vehicle: saline, higher = larger tumour", "result": "101 % of control"},
      {"measurement": "T/C", "setting": "endpoint: median tumor weight (est.), dose: 1.0 mg/kg/injection, schedule: Q07DX003 (ip), vehicle: saline, higher = larger tumour", "result": "101 % of control"},
      {"measurement": "T/C", "setting": "endpoint: median tumor weight (est.), dose: 1.25 mg/kg/injection, schedule: Q07DX002 (ip), vehicle: water, higher = larger tumour", "result": "90 % of control"},
      {"measurement": "T/C", "setting": "endpoint: median tumor weight (est.), dose: 2.0 mg/kg/injection, schedule: Q07DX003 (ip), vehicle: saline, higher = larger tumour", "result": "191 % of control"},
      {"measurement": "T/C", "setting": "endpoint: median tumor weight (est.), dose: 2.5 mg/kg/injection, schedule: Q07DX002 (ip), vehicle: saline, higher = larger tumour", "result": "90 % of control"},
      {"measurement": "T/C", "setting": "endpoint: median tumor weight (est.), dose: 2.5 mg/kg/injection, schedule: Q07DX002 (ip), vehicle: water, higher = larger tumour", "result": "50 % of control"},
      {"measurement": "T/C", "setting": "endpoint: median tumor weight (est.), dose: 3.0 mg/kg/injection, schedule: Q07DX002 (ip), vehicle: saline, higher = larger tumour", "result": "106 % of control and 110 % of control"},
      {"measurement": "T/C", "setting": "endpoint: median tumor weight (est.), dose: 3.0 mg/kg/injection, schedule: Q07DX003 (iv), vehicle: saline, higher = larger tumour", "result": "82 % of control and 83 % of control"},
      {"measurement": "T/C", "setting": "endpoint: median tumor weight (est.), dose: 4.0 mg/kg/injection, schedule: Q07DX003 (ip), vehicle: saline, higher = larger tumour", "result": "85 % of control"},
      {"measurement": "T/C", "setting": "endpoint: median tumor weight (est.), dose: 4.75 mg/kg/injection, schedule: Q07DX002 (ip), vehicle: water, higher = larger tumour", "result": "68 % of control"},
      {"measurement": "T/C", "setting": "endpoint: median tumor weight (est.), dose: 5.0 mg/kg/injection, schedule: Q07DX002 (ip), vehicle: saline, higher = larger tumour", "result": "70 % of control"},
      {"measurement": "T/C", "setting": "endpoint: median tumor weight (est.), dose: 5.0 mg/kg/injection, schedule: Q07DX002 (ip), vehicle: water, higher = larger tumour", "result": "25 % of control"},
      {"measurement": "T/C", "setting": "endpoint: median tumor weight (est.), dose: 6.33 mg/kg/injection, schedule: Q07DX002 (ip), vehicle: water, higher = larger tumour", "result": "14 % of control"},
      {"measurement": "T/C", "setting": "endpoint: median tumor weight (est.), dose: 8.0 mg/kg/injection, schedule: Q07DX003 (ip), vehicle: saline, higher = larger tumour", "result": "91 % of control"},
      {"measurement": "T/C", "setting": "endpoint: median tumor weight (est.), dose: 8.44 mg/kg/injection, schedule: Q07DX002 (ip), vehicle: water, higher = larger tumour", "result": "53 % of control"},
      {"measurement": "T/C", "setting": "endpoint: median tumor weight (est.), dose: 9.0 mg/kg/injection, schedule: Q07DX002 (ip), vehicle: water, higher = larger tumour", "result": "56 % of control"},
      {"measurement": "T/C", "setting": "endpoint: median tumor weight (est.), dose: 11.25 mg/kg/injection, schedule: Q07DX002 (ip), vehicle: water, higher = larger tumour", "result": "21 % of control"},
      {"measurement": "T/C", "setting": "endpoint: median tumor weight (est.), dose: 12.0 mg/kg/injection, schedule: Q07DX002 (ip), vehicle: saline, higher = larger tumour", "result": "53 % of control"},
      {"measurement": "T/C", "setting": "endpoint: median tumor weight (est.), dose: 12.0 mg/kg/injection, schedule: Q07DX003 (iv), vehicle: saline, higher = larger tumour", "result": "26 % of control"},
      {"measurement": "T/C", "setting": "endpoint: median tumor weight (est.), dose: 15.0 mg/kg/injection, schedule: Q07DX002 (ip), vehicle: water, higher = larger tumour", "result": "6 % of control"},
      {"measurement": "T/C", "setting": "endpoint: median tumor weight (est.), dose: 16.0 mg/kg/injection, schedule: Q07DX003 (ip), vehicle: saline, higher = larger tumour", "result": "103 % of control"},
      {"measurement": "T/C", "setting": "endpoint: median tumor weight (est.), dose: 24.0 mg/kg/injection, schedule: Q07DX003 (iv), vehicle: saline, higher = larger tumour", "result": "12 % of control"}
    ]}
  ]
}
